Experimental data reported in PubChem BioAssay (NCI).
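Assay format: 96-well plates, 48-hour exposure. Abbreviation: GI50, concentration required for 50% inhibition of growth. At the TGI there is no net growth.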

Key:
Test in all cases: growth of human tumour cells (NCI), 48 h
CAKI-1 renal = tested on: CAKI-1 renal
NCI/ADR-RES ovarian = tested on: NCI/ADR-RES ovarian
LOX IMVI melanoma = tested on: LOX IMVI melanoma
A498 renal = tested on: A498 renal
HCT-116 colon = tested on: HCT-116 colon
HT29 colon = tested on: HT29 colon
HCT-15 colon = tested on: HCT-15 colon
NCI-H23 lung = tested on: NCI-H23 lung
NCI-H460 lung = tested on: NCI-H460 lung
NCI-H226 lung = tested on: NCI-H226 lung

In the case of `CC(=O)OC(OC(C)=O)n1cc(C=O)c2ccccc21`, the TGI (CAKI-1 renal) is reported as greater than 100 µM, the TGI (NCI/ADR-RES ovarian) is reported as greater than 100 µM and the TGI (LOX IMVI melanoma) is reported as greater than 100 µM. The TGI (A498 renal) was greater than 100 µM, the TGI (HCT-116 colon) was greater than 100 µM and the TGI (HT29 colon) was greater than 100 µM. It also gave a TGI (HCT-15 colon) greater than 100 µM, a TGI (NCI-H23 lung) greater than 100 µM and a TGI (NCI-H460 lung) greater than 100 µM. For the same molecule, the TGI (NCI-H226 lung) was greater than 100 µM.
`COP(=O)(OC)C(Cc1c[nH]c2ccccc12)NC(=O)OCc1ccccc1` (stereo not drawn) showed a TGI (CAKI-1 renal) greater than 100 µM, a TGI (NCI/ADR-RES ovarian) greater than 100 µM and a TGI (LOX IMVI melanoma) greater than 100 µM. The TGI (A498 renal) was greater than 100 µM, the TGI (HCT-116 colon) was greater than 100 µM and the TGI (HT29 colon) was greater than 100 µM. For the same molecule, the TGI (HCT-15 colon) was greater than 100 µM, the TGI (NCI-H23 lung) was greater than 100 µM and the TGI (NCI-H460 lung) was greater than 100 µM. For the same molecule, the TGI (NCI-H226 lung) was greater than 100 µM.
In the case of `O=C(NC1CCN(Cc2ccccc2)CC1)c1cc2nc(-c3ccc(Cl)s3)cc(C(F)(F)F)n2n1`, the GI50 (CAKI-1 renal) is reported as greater than 100 µM, the TGI (CAKI-1 renal) is reported as greater than 100 µM and the GI50 (NCI/ADR-RES ovarian) is reported as greater than 100 µM. The TGI (NCI/ADR-RES ovarian) was greater than 100 µM, the GI50 (HCT-116 colon) was 4.84 µM and the TGI (HCT-116 colon) was greater than 100 µM. For the same molecule, the GI50 (HT29 colon) was 3.14 µM, the TGI (HT29 colon) was greater than 100 µM and the GI50 (NCI-H23 lung) was greater than 100 µM. It also gave a TGI (NCI-H23 lung) greater than 100 µM, a GI50 (NCI-H226 lung) greater than 100 µM and a TGI (NCI-H226 lung) greater than 100 µM.
`N#C[S-].[Nd+3].c1ccc(-c2ccccn2)nc1.c1ccc(-c2ccccn2)nc1.c1ccc(-c2ccccn2)nc1` gave a GI50 (CAKI-1 renal) of 5.9 µM, a TGI (CAKI-1 renal) greater than 100 µM and a GI50 (LOX IMVI melanoma) of 4.23 µM. For the same molecule, the TGI (LOX IMVI melanoma) was greater than 100 µM, the GI50 (HCT-116 colon) was 8.4 µM and the TGI (HCT-116 colon) was greater than 100 µM. The GI50 (HT29 colon) was 4.83 µM, the TGI (HT29 colon) was greater than 100 µM and the GI50 (HCT-15 colon) was 3.82 µM. It also gave a TGI (HCT-15 colon) greater than 100 µM, a GI50 (NCI-H23 lung) of 25.8 µM and a TGI (NCI-H23 lung) of 98.7 µM. For the same molecule, the GI50 (NCI-H460 lung) was 4.25 µM, the TGI (NCI-H460 lung) was 37.3 µM and the GI50 (NCI-H226 lung) was 2.89 µM. For the same molecule, the TGI (NCI-H226 lung) was 7.52 µM.
